Results: ChEMBL document CHEMBL1201862, “PubChem BioAssay data set” (2004)
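How tested: cells in 96-well plates exposed to compound for 48 hours at five concentrations. GI50 is the concentration that inhibits growth by half.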 Activity calls are given as the source filed them. No stated cut-off is given here; in the data, active = GI50 up to about 1.1 µM and inactive = higher.

Columns and labels:
Experiment in all cases: NCI-60 cell line screen, 48 h
[1] = system: U-251
[2] = system: HCC 2998
[3] = system: M14
[4] = system: HOP-62
[5] = system: Hs-578T
[6] = system: TK-10
[7] = system: CCRF-CEM
[8] = system: SN12C
[9] = system: SK-MEL-2
[10] = system: UACC-257
[11] = system: EKVX
[12] = system: SK-MEL-5
[13] = system: 786-0
[14] = system: CAKI-1
[15] = system: SK-OV-3
[16] = system: SW-620
[17] = system: SNB-19
[18] = system: UACC-62
[19] = system: LOX IMVI
[20] = system: HOP-92

| Compound | GI50 [1] | GI50 [2] | GI50 [3] | GI50 [4] | GI50 [5] | GI50 [6] | GI50 [7] | GI50 [8] | GI50 [9] | GI50 [10] | GI50 [11] | GI50 [12] | GI50 [13] | GI50 [14] | GI50 [15] | GI50 [16] | GI50 [17] | GI50 [18] | GI50 [19] | GI50 [20] |
| --- | --- | --- | --- | --- | --- | --- | --- | --- | --- | --- | --- | --- | --- | --- | --- | --- | --- | --- | --- | --- |
| CC12CCC(CC1=O)C2(C)CCC(N)=O (centres undefined) | > 100 µM (inactive) | > 100 µM (inactive) | > 100 µM (inactive) | > 100 µM (inactive) | > 100 µM (inactive) | > 100 µM (inactive) | > 100 µM (inactive) | > 100 µM (inactive) | > 100 µM (inactive) | > 100 µM (inactive) | > 100 µM (inactive) | > 100 µM (inactive) | > 100 µM (inactive) | > 100 µM (inactive) | > 100 µM (inactive) | > 100 µM (inactive) | > 100 µM (inactive) | > 100 µM (inactive) | – | – |
| Cn1c2ccccc2c2cc(N3CCCC3)c3c(c21)C(=O)N(c1ccccc1)C3=O | > 100 µM (inactive) | > 100 µM (inactive) | > 100 µM (inactive) | 60.8 µM (inactive) | 72.9 µM (inactive) | > 100 µM (inactive) | > 100 µM (inactive) | > 100 µM (inactive) | – | > 100 µM (inactive) | 86.7 µM (inactive) | > 100 µM (inactive) | 33.8 µM (inactive) | – | 58.9 µM (inactive) | > 100 µM (inactive) | > 100 µM (inactive) | 56.8 µM (inactive) | > 100 µM (inactive) | – |
| S=C1CCSc2c(ccc3ccccc23)N1 | > 100 µM (inactive) | – | > 100 µM (inactive) | 41.4 µM (inactive) | 19.1 µM (inactive) | > 100 µM (inactive) | > 100 µM (inactive) | > 100 µM (inactive) | – | > 100 µM (inactive) | 77.6 µM (inactive) | > 100 µM (inactive) | > 100 µM (inactive) | > 100 µM (inactive) | 83.9 µM (inactive) | – | 95.5 µM (inactive) | 93.8 µM (inactive) | > 100 µM (inactive) | – |
| C=C(CN(C)C)C(=O)c1ccccc1C | > 100 µM (inactive) | > 100 µM (inactive) | 18.1 µM (inactive) | > 100 µM (inactive) | – | > 74.6 µM (inactive) | 7.85 µM (inactive) | 46.9 µM (inactive) | > 100 µM (inactive) | > 55.7 µM (inactive) | > 100 µM (inactive) | > 86.5 µM (inactive) | 16.9 µM (inactive) | 27.5 µM (inactive) | > 100 µM (inactive) | 16.1 µM (inactive) | > 100 µM (inactive) | 28.2 µM (inactive) | > 69.5 µM (inactive) | 17.7 µM (inactive) |
| COC(=O)CC(C(C(=O)OC)C(=O)OC)N1C(=O)OCC1c1ccccc1 (centres undefined) | > 100 µM (inactive) | 28.5 µM (inactive) | > 100 µM (inactive) | > 100 µM (inactive) | – | > 100 µM (inactive) | > 100 µM (inactive) | > 100 µM (inactive) | > 100 µM (inactive) | > 100 µM (inactive) | > 100 µM (inactive) | > 100 µM (inactive) | > 100 µM (inactive) | > 100 µM (inactive) | > 100 µM (inactive) | 43.5 µM (inactive) | > 100 µM (inactive) | > 100 µM (inactive) | > 100 µM (inactive) | > 100 µM (inactive) |
| O=C(CCCCCCCCC(=O)NN1C(=O)/C(=C\c2ccc(O)c(O)c2)SC1c1ccc(Cl)cc1)NN1C(=O)/C(=C\c2ccc(O)c(O)c2)SC1c1ccc(Cl)cc1 (centres undefined) | 15.7 µM (inactive) | 34.2 µM (inactive) | 20.7 µM (inactive) | 10.3 µM (inactive) | – | 25.8 µM (inactive) | < 0.01 µM (active) | 41.7 µM (inactive) | 20.4 µM (inactive) | 34 µM (inactive) | 50.8 µM (inactive) | 30.6 µM (inactive) | 7.55 µM (inactive) | 9.12 µM (inactive) | 22.6 µM (inactive) | 56.5 µM (inactive) | 16.9 µM (inactive) | 14.2 µM (inactive) | 13.6 µM (inactive) | 11.5 µM (inactive) |
| Cc1cc2c(cc1C)[n+]([O-])c(C(=O)CC(=O)C(=O)Nc1ccccc1C(C)C)c(C)[n+]2[O-] | > 100 µM (inactive) | > 100 µM (inactive) | > 100 µM (inactive) | > 100 µM (inactive) | – | 25.5 µM (inactive) | > 100 µM (inactive) | > 100 µM (inactive) | > 100 µM (inactive) | 1.08 µM (active) | > 100 µM (inactive) | > 100 µM (inactive) | > 100 µM (inactive) | > 100 µM (inactive) | > 100 µM (inactive) | > 100 µM (inactive) | > 100 µM (inactive) | > 100 µM (inactive) | > 100 µM (inactive) | > 100 µM (inactive) |
| COc1ccc(-c2nc(SCC(=O)N/N=C/c3ccc(N(C)C)cc3)[nH]c2-c2ccc(OC)cc2)cc1 | 36.9 µM (inactive) | 75.9 µM (inactive) | 35.2 µM (inactive) | > 100 µM (inactive) | – | > 100 µM (inactive) | 8.57 µM (inactive) | 82 µM (inactive) | 86.1 µM (inactive) | > 100 µM (inactive) | 90.4 µM (inactive) | 26.8 µM (inactive) | 57.7 µM (inactive) | > 100 µM (inactive) | > 100 µM (inactive) | 48 µM (inactive) | > 100 µM (inactive) | 46.7 µM (inactive) | 92.9 µM (inactive) | > 100 µM (inactive) |
| CCOC(=O)Nc1ccc(S(=O)(=O)OC)cc1.CCOC(=O)Nc1ccc(S(=O)(=O)OC)cc1.NNC(=O)c1ccncc1 | 11.1 µM (inactive) | > 50 µM (inactive) | > 50 µM (inactive) | > 50 µM (inactive) | – | > 50 µM (inactive) | 9.08 µM (inactive) | > 50 µM (inactive) | > 50 µM (inactive) | > 50 µM (inactive) | > 50 µM (inactive) | > 50 µM (inactive) | > 50 µM (inactive) | > 50 µM (inactive) | > 50 µM (inactive) | 12.1 µM (inactive) | > 50 µM (inactive) | > 50 µM (inactive) | > 50 µM (inactive) | > 50 µM (inactive) |
| CCNc1c(C(=O)N(CC)CC)c(=O)[nH]c2ncccc12 | > 100 µM (inactive) | > 100 µM (inactive) | > 100 µM (inactive) | > 100 µM (inactive) | – | > 100 µM (inactive) | > 100 µM (inactive) | > 100 µM (inactive) | > 100 µM (inactive) | > 100 µM (inactive) | > 100 µM (inactive) | > 100 µM (inactive) | > 100 µM (inactive) | > 100 µM (inactive) | > 100 µM (inactive) | > 100 µM (inactive) | > 100 µM (inactive) | > 100 µM (inactive) | > 100 µM (inactive) | > 100 µM (inactive) |
| COC(=O)[C@@H](Cc1ccccc1)NNC(=O)OC(C)(C)C | > 100 µM (inactive) | > 100 µM (inactive) | – | > 100 µM (inactive) | > 100 µM (inactive) | > 100 µM (inactive) | > 100 µM (inactive) | > 100 µM (inactive) | – | > 100 µM (inactive) | > 100 µM (inactive) | > 100 µM (inactive) | > 100 µM (inactive) | – | > 100 µM (inactive) | > 100 µM (inactive) | – | > 100 µM (inactive) | > 100 µM (inactive) | – |
